What was measured:
[1] = target: SARS-CoV-2 Main Protease (SARS-CoV-2) (UniProt P0DTD1)
[2] = target: SARS-CoV-2 Main Protease (SARS-CoV-2) (UniProt P0DTD1); remark: listed apart in the source

SMILES	inhibition ([1]; 20.0 µM) [%]	inhibition ([1]; 50.0 µM) [%]	inhibition ([2]; 50.0 µM) [%]	IC50 [2] [µM]	IC50 [1] [µM]	inhibition ([2]; 20.0 µM) [%]
O=C1C(=O)N(CCCOc2ccc(Cl)cc2)c2ccccc21	-0.218	3.47	7.23	–	–	–
COc1ccccc1OCCNC(=O)c1cc(=O)[nH]c2cccc(F)c12	8.74	12.5	–	1.83	–	–
COC(=O)c1ccc(-c2cc(Cl)cc(CC(=O)Nc3cnccc3C)c2)c(OC)c1	–	–	–	12	12.7	–
O=C(Nc1nncn1C1CC1)C1CCS(=O)(=O)c2ccccc21 (stereo not drawn)	37.6	74.6	–	26.8	–	–
CCOC(=O)c1c(C)n(S(C)(=O)=O)c2ccc(N(C(=O)c3ccco3)S(C)(=O)=O)cc12	67.5	98.6	–	0.147	–	–
COc1ccc2c(c1F)NC(=O)C2=O	-1.15	3.02	7.79	–	–	–
COC(=O)c1c(NCCCc2ccccc2)c2cc(F)ccc2[nH]c1=O	20.5	7.56	–	68.6	–	–
Nc1cncc2c1CCCN2C(=O)Cc1cccc(Cl)c1	–	–	–	54.2	32.5	–
COc1ccc(-c2cc(COc3cc(Cl)cc(CC(=O)Nc4cnccc4C)c3)on2)cc1	–	–	67.3	13.8	71.5	–
O=C(CCl)N1CCN(Cc2cc(O)cc(Cl)c2)CC1	75	89.5	98.9	1.57	–	92.7
Cc1ccc(S(=O)(=O)Nc2c(-c3cccnc3)nc3ccccn23)c(C)c1	2.5	7.7	0	–	–	–
COc1ccc(Cl)cc1N1CCN(Cc2cc(=O)[nH]c3ccccc23)C1=O	-1.82	4.69	0	–	–	–
OC[C@@]1(F)CCN(c2nc(-c3cccnc3)nc3sc4c(c23)CCC4)C1 (stereo in doubt)	1.46	6.05	0	–	–	–
CC(C)n1cnnc1CNC(=O)C1CCOc2ccccc21 (stereo not drawn)	-4.11	-1.11	0	–	–	–
Cc1ccc(CN2CCC(CNC(=O)Nc3cn(CC(C)C)c(=O)c4ccccc34)C2)cc1 (stereo not drawn)	-3.01	0.927	–	92.3	–	–
CC(C)C[C@H](NC(=O)OCc1ccccc1)C(=O)N[C@H](C(=O)NCC(=O)C=[N+]=[N-])C(C)C (stereo in doubt)	–	11.5	15.3	–	–	–
O=C(O)[C@@H](c1ccccc1)N1Cc2ccccc2C1=O (stereo in doubt)	96.3	99.4	–	1.16	–	–
CC(C)(C)NC(=O)CN1C(=O)C(=O)c2cccc(Br)c21	-2.41	1.28	0	–	–	–
C=CC(=O)N(c1ccc(C(F)(F)F)cc1)C(C(=O)Nc1ccc(OC)cc1)c1cccnc1 (stereo not drawn)	40.3	60.7	–	–	–	60
O=C(Nc1cccnc1)Nc1cc(O)cc(Cl)c1	4.43	21.2	19.4	–	–	–
O=C(NCCN1CCN(C(=O)CCl)CC1)c1cccc2ccccc12	6.97	4.69	23.8	–	–	–
CCCCN(CCCNC(=O)Nc1cn(CC(C)C)c(=O)c2ccccc12)c1ccccc1	-4.26	-3.25	–	82.7	–	–
COc1cccc(C(=O)Nc2n[nH]c(SCc3ccc(Cl)cc3)n2)c1	8.77	32.5	–	0.2	–	–
CO[C@@H]1C[C@@H](COc2cccnc2)N(c2ncccn2)C1 (stereo in doubt)	-6.63	-1.19	0	–	–	–

SMILES	inhibition ([1]; 20.0 µM) [%]	inhibition ([1]; 50.0 µM) [%]	inhibition ([2]; 50.0 µM) [%]	IC50 [2] [µM]	IC50 [1] [µM]	inhibition ([2]; 20.0 µM) [%]
COC(=O)c1cc(Br)cc2c1NC(=O)C2=O	-5.73	-5.38	61.7	42.3	–	–
Cc1nnc(NC(=O)C2COc3ccc(Cl)cc32)n1C1CC1 (stereo not drawn)	-63.2	-2.41	0	–	–	–
CSC1=C(C#N)C2(CCCCC2)C(C#N)=C(NC(=O)CCl)N1	–	–	97.5	1.52	1.14	–
Cc1ccn2c(-c3ccc4[nH]ncc4c3)c(-c3ccc(F)cc3)nc2c1	0.801	0.943	50.8	–	–	–
C=CC(=O)N(c1ccc(C(C)(C)C)cc1)C(C(=O)NCCc1cccc(F)c1)c1cncc(O)c1 (stereo not drawn)	16.1	23.5	–	26.2	–	–
CCC(=O)Nc1ccc(N(Cc2ccsc2)C(=O)Cn2nnc3ccccc32)cc1	79.7	89.3	78.1	–	–	–
CN1CCN(C(=O)CNc2c(S(N)(=O)=O)ccc3ccccc23)CC1	-0.961	0.321	0	–	–	–
O=C(C(F)Cl)N1CCN(Cc2cccc3ccccc23)CC1 (stereo not drawn)	20.5	29.5	9.11	–	–	–
O=C1C(=O)N(Cc2ncon2)c2ccc(Br)cc21	-1.88	-2.4	94.1	3.79	–	–
C=CC(=O)N1CCN(Cc2ccc(F)cc2)CC1	7.92	11.4	0	–	–	–
CC(C)C[C@@H]1CN(C(=O)CCl)CCN1Cc1cccc(Cl)c1 (stereo in doubt)	99.2	99.5	100	0.515	–	–
Cc1ccncc1NC(=O)C[C@H](c1ccccc1)N1CCC(O)CC1 (stereo in doubt)	6.5	34.5	–	67.5	–	–
N#Cc1cncc(NC(=O)Cc2c[nH]c3ncccc23)c1	-0.384	0.0775	0	–	–	–
COC(=O)c1c(C)n(S(C)(=O)=O)c2ccc(N(C(=O)c3ccco3)S(C)(=O)=O)cc12	47.7	97.8	–	0.335	–	–
CS(=O)(=O)N1CCc2ccc(CN3CCN(C(=O)CCl)CC3)cc2C1	29.9	62.5	71.8	38.4	–	–
Cc1cc(Cl)cc(CC2CCN(C(=O)CCl)CC2)c1	95.1	98.3	100	1.24	–	–
CC(=O)/C(C#N)=C(\O)Nc1ccc(C(F)(F)F)cc1	-2.89	-3	22.2	–	–	–
CN(CCC(N)=O)C(=O)C(=O)N1Cc2ccccc2C(c2ccccc2)C1 (stereo not drawn)	-0.756	-0.803	0	–	–	–
CNC(=O)c1cc(Cl)cc(CC(=O)Nc2cnccc2C)c1	–	–	–	43.9	51.5	–
CCOc1ccccc1CN1C(=O)C(=O)c2cc(Br)ccc21	0.566	3.64	72.2	12.4	–	–
Cn1cc(NC(=O)Nc2ccccn2)c2ccccc2c1=O	-2.17	-0.727	0	–	–	–
COc1ccccc1OC1CCCN(C(=O)c2c(C)c(=O)[nH]c3ccccc23)C1 (stereo not drawn)	-2.54	-1.13	0	–	–	–
N#CCCCOC(=O)c1cccc2c1NC(=O)C2=O	-3.65	-1.22	0	–	–	–
COc1cc(OC)cc(Oc2cccc(CNC(=O)Cn3nnc4ccccc43)c2)c1	-3.39	0.116	0	–	–	–

SMILES	inhibition ([1]; 20.0 µM) [%]	inhibition ([1]; 50.0 µM) [%]	inhibition ([2]; 50.0 µM) [%]	IC50 [2] [µM]	IC50 [1] [µM]	inhibition ([2]; 20.0 µM) [%]
O=C1Nc2ccc(OCCF)cc2C1=O	-6.86	-2.92	56.2	45.2	–	–
O=[N+]([O-])c1cnc(Sc2nccc(-c3cccnc3)n2)s1	9.63	37.5	–	1.44	–	–
Cc1ccc(OCCN2C(=O)C(=O)c3cccc(Cl)c32)cc1	0.316	5.65	77	2.15	–	–
CC(C(=O)Nc1cnccc1O)c1ccccc1 (stereo not drawn)	0.187	0.74	0	–	–	–
COC(=O)[C@H](CO)NC(=O)[C@H](Cc1ccccc1)NC(=O)OCc1ccccc1 (stereo in doubt)	1.06	2.61	0	–	–	–
COc1ccc(-n2cc(CN3CCN(C(=O)CCl)CC3)nn2)cc1	10.9	24.9	24.1	–	–	–
O=C(CCl)N1CCN(Cc2cnc(Cc3ccccc3)s2)CC1	41.5	51.6	97.6	34.6	–	–
Cc1cc(C)nc(NC2CCN(C(=O)CCl)CC2)n1	46.1	81.5	100	19.5	–	–
O=C(Nc1cccnc1)N(CCN1CCOCC1)c1cccc(Cl)c1	24.4	49.6	59.4	–	–	–
C=CC(=O)N(C(CO)CC#CC)C(C(=O)NC(C)(C)C)c1cccnc1 (stereo not drawn)	-4.06	-4.3	0	–	–	–
C=CC(=O)N(c1ccc(C(F)(F)F)cc1)C(C(=O)NCCc1cccc(F)c1)c1cncc(O)c1 (stereo not drawn)	26.8	44.9	–	17.3	–	–
C[C@@H]1CS/C(=N\NC(=O)C(=O)C(NC(=O)C2CCCCCC2)C2CCOCC2)N1C (stereo in doubt)	–	2.64	21	–	–	–
Cc1cc([C@H](C)C(=O)O)cc2[nH]c3ccc(Cl)cc3c12 (stereo in doubt)	0.304	3.37	9.04	–	–	–
CC(C)Cn1cc(NC(=O)NCCc2ccc(Cl)cc2)c2ccccc2c1=O	22.5	-1.58	–	95.9	–	–
COc1ccc(CN2C(=O)C(=O)c3cc(Br)cc(C)c32)cc1OC	-2.84	0.559	99.3	1.23	–	–
Cc1cccc(C)c1NC(=O)CN1C(=O)C(=O)c2ccccc21	-5.56	-2.09	0	–	–	–
Cc1nc(N)sc1CN1CCN(Cc2cccc(Cl)c2)C1=O	5.38	35.6	0	–	–	–
O=C(Nc1ccc([N+](=O)[O-])cc1)c1cc(Cl)ccc1O	-7.24	-15.6	6	–	–	2.8
O=S(=O)(Nc1ccccc1SCc1cccc(Cl)c1F)c1cc(Cl)sc1Cl	90.3	81.3	–	1.92	–	–
CNCCN(C)C(=O)C(=O)N1Cc2ccccc2C(c2ccccc2)C1 (stereo not drawn)	-1.83	-2.83	0	–	–	–
COc1cc(OC)cc(Oc2ccc(CNC(=O)Cn3nnc4ccccc43)cc2)c1	4.58	17.3	0	–	–	–
O=C(NCc1cccnn1)Nc1cccc(-c2ncc3n2CCCC3)c1	-2.92	-5.29	0	–	–	–
Cc1ccc2nc(-c3ccc(N)cc3)sc2c1S(=O)(=O)O	–	21.2	0	–	–	–
Cc1cc(S(=O)(=O)c2c([N+](=O)[O-])cc(C(F)(F)F)cc2[N+](=O)[O-])c(Cl)cc1Cl	–	9.61	34.8	–	–	–

From the COVID Moonshot data (paper PMC11187573), “Identification of SARS-CoV-2 Mpro inhibitors through deep reinforcement learning for de novo drug design and computational chemistry approaches” (RSC Medicinal Chemistry, 2024)
